Measured values as given in publication PMC5972182, “Comparison of a Rat Primary Cell-Based Blood-Brain Barrier Model With Epithelial and Brain Endothelial Cell Lines: Gene Expression and Drug Transport” (Frontiers in Molecular Neuroscience, 2018).

Tests used:
[1] = Permeability across primary rat brain endothelial cell-based triple co-culture BBB model (EPA)
[2] = Permeability across vinblastine-selected VB-Caco-2 cell layers; settings: human
[3] = Permeability across Caco-2 epithelial cell layers; type: in vitro ADME; settings: human, CaCo2, fluorescein 10 μg/ml, mean ± SD
[4] = Permeability across RBE4 brain endothelial cell line; type: in vitro ADME; settings: rat, fluorescein 10 μg/ml, mean ± SD
Protocol: RBE4 rat brain endothelial cell line (provided by Dr. Pierre-Olivier Couraud, Institut Cochin, Paris, France) was grown in DMEM/ HAM’s F-12, supplemented with 10% FBS, 1 ng/ml bFGF and 50 μg/ml gentamicin.

[5] = Permeability across MDCK-MDR1 cell layers; type: in vitro ADME, canine; settings: dog, fluorescein 10 μg/ml, mean ± SD
[6] = Permeability across hCMEC/D3 (D3) brain endothelial cell line; type: in vitro ADME; settings: human, fluorescein 10 μg/ml, mean ± SD
Protocol: (§1) Cultures of human brain endothelial hCMEC/D3 cell line (≤passage number 35) were grown in MCDB 131 medium (Pan Biotech) supplemented with 5% FBS, GlutaMAX (100×, LifeTechnologies, Carlsbad, CA, USA), lipid supplement (100×, Life Technologies, Carlsbad, CA, USA), 10 μg/ml ascorbic acid, 550 nM hydrocortisone, 100 μg/ml heparin, 1 ng/ml basic fibroblast growth factor (bFGF, Roche, USA), 2.5 μg/ml insulin, 2.5 μg/ml transferrin, 2.5 ng/ml sodium selenite and 50 μg/ml gentamicin (Weksler et al., [2005]). For differentiation of this cell line (D3L group), the medium was supplemented with 10 mM lithium chloride (LiCl) at the first change of medium (Paolinelli et al., [2013]). For the three brain endothelial cell lines, we used culture media with very similar or identical composition to those that were originally described for their growth and maintenance.

[7] = Permeability across GP8 brain endothelial cell line; type: in vitro ADME; settings: rat, fluorescein 10 μg/ml, mean ± SD
Protocol: GP8 rat brain endothelial cell line (provided by Dr. John Greenwood, University College London, UK) was cultured in DMEM/ HAM’s F-12, 15% PDS, 100 μg/ml heparin, 1 ng/ml bFGF and 50 μg/ml gentamicin.

[8] = Permeability across MDCK cell layers; type: in vitro ADME, canine; settings: dog, fluorescein 10 μg/ml, mean ± SD
[9] = Permeability across lithium-treated hCMEC/D3 (D3L) cells; type: in vitro ADME; settings: human, D3L (10 mM LiCl), fluorescein 10 μg/ml, mean ± SD
Protocol: as §1

[10] = in vitro; settings: rat
[11] = system: VB-Caco-2 cells
[12] = in vitro; settings: human, Caco-2
[13] = system: hCMEC/D3 cells; assay: Transendothelial electrical resistance (TEER) of D3 cells after lithium treatment; type: cell-based, human; settings: 10 mM lithium chloride in medium; unpaired t-test, P < 0.0004
Protocol: as §1
Transendothelial electrical resistance (TEER), reflecting the permeability of TJ for sodium ions, was measured by an EVOM voltohmmeter (World Precision Instruments, Sarasota, FL, USA) combined with STX-2 electrodes. Recorded resistance was expressed to the surface area of the filters (Ω × cm^2, Transwell inserts, […] membrane, 0.4 μm pore size, Corning Costar, USA). TEER of cell-free inserts (110 Ω × cm^2) was subtracted from the measured data.

O=C(O)c1ccccc1O [Salicylic acid, salicylic acid]
Papp A→B ([1]; Wistar): 4.78 ×10⁻⁶ cm/s | Papp A→B [2]: 7.6 ×10⁻⁶ cm/s

O=C1OC2(c3ccc(O)cc3Oc3cc(O)ccc32)c2ccccc21 [Fluorescein, fluorescein]
Papp at 30 min, 10 µg/ml [3]: 1.5 ± 0.28 ×10⁻⁶ cm/s | Papp at 30 min, 10 µg/ml ([1]; Wistar): 2.1 ± 0.25 ×10⁻⁶ cm/s | Papp at 30 min, 10 µg/ml [4]: 27.4 ± 1.63 ×10⁻⁶ cm/s | Papp at 30 min, 10 µg/ml [5]: 2.7 ± 0.31 ×10⁻⁶ cm/s | Papp at 30 min, 10 µg/ml [6]: 22.2 ± 3.71 ×10⁻⁶ cm/s | Papp at 30 min, 10 µg/ml [7]: 39.8 ± 3.51 ×10⁻⁶ cm/s | Papp at 30 min, 10 µg/ml [8]: 2.8 ± 0.23 ×10⁻⁶ cm/s | Papp at 30 min, 10 µg/ml [9]: 19.3 ± 1.22 ×10⁻⁶ cm/s | Papp at 30 min, 10 µg/ml [2]: 0.3 ± 0.06 ×10⁻⁶ cm/s

CO[C@H]1[C@H](O)[C@@H](CO)OC(O)[C@@H]1O (stereo partly drawn) [Glucopyranose, 3-O-methyl-D-glucopyranose]
Papp A→B ([1]; Wistar): < 65.7 ×10⁻⁶ cm/s | Papp A→B [2]: 17.2 ×10⁻⁶ cm/s

CCCN(CCC)S(=O)(=O)c1ccc(C(=O)O)cc1 [Probenecid, probenecid]
Papp A→B ([1]; Wistar): 19 ×10⁻⁶ cm/s | Papp A→B [2]: 33.4 ×10⁻⁶ cm/s

Nc1c2c(nc3ccccc13)CCCC2 [tacrine]
Papp at 30 min, 0.5 µM ([10]; Wistar): 102 ± 27 ×10⁻⁶ cm/s

NCC1(CC(=O)O)CCCCC1 [Gabapentin, gabapentin]
Papp A-B [11]: below the detection limit | Papp A→B [12]: < 0.88 ×10⁻⁶ cm/s | efflux ratio [12]: > 0.27 | Papp A→B ([10]; Wistar): 2.98 ×10⁻⁶ cm/s | efflux ratio [10]: 0.92

CC(C)c1nc(N(C)S(C)(=O)=O)nc(-c2ccc(F)cc2)c1/C=C/[C@@H](O)C[C@@H](O)CC(=O)O [Rosuvastatin, rosuvastatin]
Papp A→B ([1]; Wistar): 11.3 ×10⁻⁶ cm/s | Papp A→B [2]: 0.38 ×10⁻⁶ cm/s

CCCC(CCC)C(=O)O [Valproic acid, valproic acid]
Papp A→B ([1]; Wistar): 39.4 ×10⁻⁶ cm/s | Papp A→B [2]: 42.2 ×10⁻⁶ cm/s

[Cl-].[Li+] [lithium, lithium chloride]
Effect on TEER of D3 cells [13]: significantly elevated

N[C@@H](Cc1ccc(O)c(O)c1)C(=O)O [L-DOPA, 3,4-dihydroxy-L-phenylalanine]
efflux ratio at 10 μM [1]: 0.4 | Papp A→B ([1]; Wistar): 73 ± 4 ×10⁻⁶ cm/s

CC[C@H](C)C(=O)O[C@H]1C[C@H](O)C=C2C=C[C@H](C)[C@H](CC[C@@H](O)C[C@@H](O)CC(=O)O)[C@H]21 [Pravastatin, pravastatin]
Papp A→B ([1]; Wistar): 7.61 ×10⁻⁶ cm/s | Papp A→B [2]: 0.19 ×10⁻⁶ cm/s

NCC(CC(=O)O)c1ccc(Cl)cc1 (centres unmarked) [Baclofen, baclofen]
Papp A→B ([1]; Wistar): 16.3 ×10⁻⁶ cm/s | Papp A→B [2]: 0.31 ×10⁻⁶ cm/s
